Test results taken from patent US20170165231A1, “TREATING EWING'S SARCOMA AND EWS-FLI1 RELATED DISORDERS” (STAR BIOTECHNOLOGY, LLC, priority 2012, published 2017).
Like-named read-outs stand apart in the source and are kept apart here.

What was measured:
[1] = unformulated compound, background statement; cited from earlier work
[2] = system: TC71 Luc cells; assay: TC71Luc Ewing's sarcoma xenograft murine model; format: in vivo, mice; conditions: continuous and prolonged API administration
Text: FIG. 3 (Smooth of Grouped-TC71 Luc Xenograft Animal Model) depicts data obtained from a TC71 Luc Ewing's sarcoma xenograft murine model for mice treated with the API in an EtOH (5%), PEG400 (40%), PBS formulation. The x-axis is time post-administration of the API in days with 0 being the first day of administration of API. The y-axis is tumor volume in mm^3.
Using a TC71Luc Ewing's sarcoma xenograft murine model, mice were subcutaneously injected with 1 million TC71 Luc cells. At a predetermined tumor volume (time=0), mice were given the first administration of API in an EtOH (5%), PEG400 (40%), PBS formulation. FIG. 3 depicts data obtained from control and for administration once per week (1×), three times per week (3×) and five times per week (5×) in each case at a dosage of 1.2 mg per mouse.

[3] = design: species or system CF1 mice; conditions: in vivo; for HL_Lambda_z: CF1, mouse
Text: FIGS. 1A and 1B depict data of pharmacokinetic studies in CF1 mice with respect to administration of the API in the formulation shown in the Figures and via the route of administration shown in the Figures. […] In FIG. 1A group/dose=Group IV_IV_40; Rsq=0.9297; Rsq_adjusted=0.9062; HL_Lambda_z=4.7397 (hr); (5 points used in calculation); Uniform Weighting. […] In FIG. 1B group/dose=Group V_PO_40; Rsq=0.693; Rsq_adjusted=0.6163; HL_Lambda_z=2.0556 (hr); (6 points used in calculation); Uniform Weighting.
FIGS. 2A and 2B depict data of pharmacokinetic studies in CF1 mice with respect to administration of the API in the formulation shown in the Figures and via the route of administration shown in the Figures. […] In FIG. 2A dose/route=Group III_PO_150; Rsq=0.9685; Rsq_adjusted=0.9528; HL_Lambda_z=4.2505 (hr); (4 points used in calculation); Uniform Weighting. […] In FIG. 2B dose/route=Group VI_PO_400; Rsq=0.9971; Rsq_adjusted=0.9957; HL_Lambda_z=1.9461 (hr); (4 points used in calculation); Uniform Weighting.
Pharmacokinetics and bioavailability data was obtained from animal studies for a 50% PEG 400 plus 10% EtOH plus PBS formulation (Groups 1, 2 & 3) and a 40% PEG 400 plus 5% EtOH plus 18% TPGS plus PBS formulation (Groups 4, 5 & 6) and are shown below in Table 2.
The API was administered to CF1 mice. Blood was drawn from the mice at predetermined time intervals. Plasma was isolated from the blood and analyzed using LCMS to determine amounts of API (ng/mL). The data shown in FIG. 1A was obtained for IV administration of 40 mg/kg of API in a formulation containing 40% PEG400, 5% EtOH and 18% TPGS (d-alpha tocopheryl PEG1000 succinate). The data shown in FIG. 1B was obtained for PO administration of 40 mg/kg of API in a formulation containing 40% PEG400, 5% EtOH and 18% TPGS (d-alpha tocopheryl PEG1000 succinate). The data shown in FIG. 2A was obtained for PO administration of 150 mg/kg of API in a formulation containing 50% PEG400 and 10% EtOH. The data shown in FIG. 2B was obtained for PO administration of 400 mg/kg of API in a formulation containing 40% PEG400, 5% EtOH and 18% TPGS (d-alpha tocopheryl PEG1000 succinate). Time 0 in FIGS. 1A, 1B, 2A and 2B represent the time of administration of the API.

- HL_Lambda_z ([3]; iv, 40 mg/kg): 4.7397 h
- HL_Lambda_z ([3]; po, 40 mg/kg): 2.0556 h
- HL_Lambda_z ([3]; po, 150 mg/kg): 4.2505 h
- HL_Lambda_z ([3]; po, 400 mg/kg): 1.9461 h
- clearance rate from plasma ([3]; mouse): rapid
SMILES: COc1ccc(C(=O)CC2(O)C(=O)Nc3c(Cl)ccc(Cl)c32)cc1 (stereo not shown) [compound of Formula I, 4,7-Dichloro-1,3-dihydro-3-hydroxy-3[2-(4-methoxyphenyl)-2-oxoethyl]-2H-indol-2-one]
- solubility in water [1]: highly insoluble
- tumor abatement [2]: increased tumor abatement
